Converted amounts (≈) assume the structure as drawn.
Legend:
S. pneumoniae ATCC 51916 = assay: MIC, S. pneumoniae; type: cell-based
S. aureus ATCC 13709 = assay: MIC, antibacterial potency, S. aureus; type: cell-based
[1] = S. pneumoniae (Spn52), in µg/mL

Row | MIC Spn52 (S. pneumoniae ATCC 51916; S. pneumoniae) [µg/mL] | MIC, SA (S. aureus ATCC 13709; S. aureus) [µg/mL] | MIC Spn52 (S. pneumoniae ATCC 51916; [1]) | MIC, SA (S. aureus ATCC 13709; S. aureus (SA), in µg/mL) | Structure (SMILES)
1 | > 64 | > 64 |  |  | CCc1[nH]c2nc(Sc3cc(=O)n(CCC4CCCCC4)c(=O)[nH]3)nc(N3CC(O)C3)c2c1Br [700,412]
2 |  |  | 8 | 8 | CCc1[nH]c2nc(Sc3cnc4cccnc4c3)nc(N3CC(C(=O)N4CC(N)C4)C3)c2c1Cl [700,876]
3 | > 64 | > 64 |  |  | CCOC(=O)Cc1nc(N2CCC(O)C2)c2c(Cl)c(CC)[nH]c2n1 (stereo not drawn) [700,544]
4 | 2 (≈ 4.42 µM) | 1 (≈ 2.21 µM) |  |  | CCc1[nH]c2nc(Sc3cnc4cccnc4c3)nc(N3CC(C4(N)CC4)C3)c2c1Cl [700,706]
5 |  |  | 16 | 4 | CCc1[nH]c2nc(Sc3ccc4ccc(C(=O)O)nc4c3)nc(N3CC(CNS(C)(=O)=O)C3)c2c1Cl [700,806]
6 | 1 (≈ 1.93 µM) | ≤ 0.5 |  |  | CCc1[nH]c2nc(Sc3cnc4nccnc4c3)nc(N3CC(NC(=O)c4cnccn4)C3)c2c1Cl [700,439]
7 | ≤ 0.5 | ≤ 0.5 |  |  | CCc1[nH]c2nc(Sc3cnc4nccnc4c3)nc(N3CC(CNS(C)(=O)=O)C3)c2c1Cl [700,487]
8 | > 64 | > 64 |  |  | CCc1[nH]c2nc(Cc3cccnc3)nc(N3CCC(C(C)N4CCOCC4)CC3)c2c1Cl (stereo not drawn) [700,586]
9 | > 64 | 2 (≈ 4.26 µM) |  |  | CCc1[nH]c2nc(Sc3ccc4ccc(C(=O)O)nc4c3)nc(N3CC[C@@H](N)C3)c2c1Cl [700,719]
10 |  |  | 8 | >8 | CCc1[nH]c2nc(Sc3cnc4nccnc4c3)nc(N3CC4C(C3)C4(CN)NCc3ccccc3)c2c1Cl (stereo not drawn) [700,886]
11 |  |  | 32 | 4 | CCc1[nH]c2nc(Sc3cnc4c(N)nc(CN5CCC(N)CC5)nc4c3)nc(N3CC[C@@H](N)C3)c2c1Cl [700,827]
12 |  |  | 16 | 4 | CCc1[nH]c2nc(Sc3cnc4nccnc4c3)nc(N3C[C@@H]4[C@H](C3)[C@@]4(N)CN)c2c1Cl [700,884]
13 | > 64 | > 64 |  |  | CCc1[nH]c2nc(Sc3cnc4nccnc4c3)nc(N(C)CC(O)C(O)C(O)C(O)CO)c2c1Cl (stereo not drawn) [700,431]
14 | > 64 | > 64 |  |  | Cc1[nH]c2nc(Sc3cc(=O)[nH]c(=O)[nH]3)nc(N3CC(O)C3)c2c1Br [700,362]
15 |  |  | 4 | 4 | CCc1[nH]c2nc(Sc3cc(F)cc4nc(C)nc(N)c34)nc(N3CC[C@@H](N)C3)c2c1Cl [700,864]
16 | 2 (≈ 4.4 µM) | ≤ 0.5 |  |  | CCc1[nH]c2nc(Sc3cnc4nccnc4c3)nc(N3CC(NC(C)=O)C3)c2c1Cl [700,441]
17 | > 64 | > 64 |  |  | CCc1[nH]c2nc(Sc3nc(C(=O)O)cs3)nc(NC[C@H](C)O)c2c1Cl [700,322]
18 | 8 (≈ 16.6 µM) | ≤ 0.5 |  |  | CCc1[nH]c2nc(Sc3ccc4cc(C(=O)OC)cnc4c3)nc(N3CC[C@@H](N)C3)c2c1Cl [700,698]
19 | 2 (≈ 4.68 µM) | ≤ 0.5 |  |  | CCc1[nH]c2nc(Sc3cnc4nccnc4c3)nc(N3CC[C@@H](N)C3)c2c1Cl [700,618]
20 |  |  | >64 | 64 | CCc1[nH]c2nc(Sc3ccc4c(N5CC[C@@H](N)C5)cc(C(=O)O)nc4c3)nc(N3CC[C@@H](N)C3)c2c1Cl [700,825]

Row | MIC Spn52 (S. pneumoniae ATCC 51916; S. pneumoniae) [µg/mL] | MIC, SA (S. aureus ATCC 13709; S. aureus) [µg/mL] | MIC Spn52 (S. pneumoniae ATCC 51916; [1]) | MIC, SA (S. aureus ATCC 13709; S. aureus (SA), in µg/mL) | Structure (SMILES)
21 | 1 (≈ 1.87 µM) | ≤ 0.5 |  |  | CCc1[nH]c2nc(Sc3cc(=O)n(CCC(F)(F)F)c(=O)[nH]3)nc(N3CC(O)C3)c2c1Br [700,415]
22 |  |  | 4 | 8 | CCc1[nH]c2nc(Sc3cnc4cccnc4c3)nc(N3CC4C(C3)C4(CN)NCc3ccccc3)c2c1Cl (stereo not drawn) [700,887]
23 |  |  | 32 | 32 | CCc1[nH]c2nc(Sc3cnc4cccnc4c3)nc(N3CCC(N)(C(=O)N[C@H](CO)C(=O)OC)C3)c2c1Cl (stereo partly drawn) [700,889]
24 | 32 (≈ 70.3 µM) | 16 (≈ 35.2 µM) |  |  | CCc1[nH]c2nc(Sc3cnc(Oc4cccnc4)nc3)nc(N3CC(N)C3)c2c1Cl [700,561]
25 |  |  | >64 | 4 | CCc1[nH]c2nc(Sc3cnc4nccnc4c3)nc(N3CC(NC(=O)C4CNC4)C3)c2c1Cl [700,842]
26 | 8 (≈ 14.8 µM) | 8 (≈ 14.8 µM) |  |  | CCc1[nH]c2nc(Sc3cnc4nccnc4c3)nc(N3CC4CN(C(=O)OC(C)(C)C)C4C3)c2c1Cl (stereo not drawn) [700,571]
27 |  |  | >8 | 4 | C=CCc1nc(Oc2ccc(Cl)c(C#N)c2)nc2[nH]c(CC)c(Cl)c12 [700,832]
28 | > 64 | 64 (≈ 203 µM) |  |  | CCc1[nH]c2nc(Cc3cccnc3)nc(N(C)C)c2c1Cl [700,478]
29 | 2 (≈ 4.02 µM) | ≤ 0.5 |  |  | CCc1[nH]c2nc(Sc3cnc4nccnc4c3)nc(N3CCC(N4CCOCC4)C3)c2c1Cl (stereo not drawn) [700,429]
30 | > 64 | 1 (≈ 2.26 µM) |  |  | CCc1[nH]c2nc(Cc3cccnc3)nc(N3CC(NC(=O)OC(C)(C)C)C3)c2c1Cl [700,461]
31 | > 64 | > 64 |  |  | CCc1[nH]c2nc(Sc3nc(C(=O)OC)cs3)nc(Cl)c2c1Cl [700,320]
32 | 4 (≈ 9.63 µM) | ≤ 0.5 |  |  | CCc1[nH]c2nc(Sc3nc(C(=O)OC)cs3)nc(O)c2c1Br [700,282]
33 |  |  | <=0.5 | <=0.5 | CCc1[nH]c2nc(Sc3cnc4cccnc4c3)nc(N3CC4CCNC4C3)c2c1Cl (stereo not drawn) [700,801]
34 | 8 (≈ 19.6 µM) | 2 (≈ 4.89 µM) |  |  | CCc1[nH]c2nc(Sc3cnc4nccnc4c3)nc(-n3ccnc3)c2c1Cl [700,542]
35 |  |  | 16 | 4 | CCc1[nH]c2nc(Sc3cncnc3)nc(N3CC4CCNC4C3)c2c1Cl (stereo not drawn) [700,802]
36 | > 64 | > 64 |  |  | CCc1[nH]c2nc(Sc3cnc4nccnc4c3)nc(Oc3cncc(OC)c3)c2c1Cl [700,686]
37 | 4 (≈ 8.04 µM) | 1 (≈ 2.01 µM) |  |  | CCc1[nH]c2nc(Sc3cc(=O)n(CC(C)O)c(=O)[nH]3)nc(N3CC(O)C3)c2c1Br (stereo not drawn) [700,451]
38 | 8 (≈ 19.3 µM) | 16 (≈ 38.7 µM) |  |  | CCc1[nH]c2nc(Sc3cnc4nccnc4c3)nc(OC3CNC3)c2c1Cl [700,486]
39 | > 64 | > 64 |  |  | CCc1[nH]c2nc(Sc3ccc4c(N5CC(N)C5)cc(C(=O)O)nc4c3)nc(N3CC4C(N)C4C3)c2c1Cl (stereo not drawn) [700,661]

Row | Structure (SMILES) | MIC Spn52 (S. pneumoniae ATCC 51916; S. pneumoniae) [µg/mL] | MIC, SA (S. aureus ATCC 13709; S. aureus) [µg/mL] | MIC Spn52 (S. pneumoniae ATCC 51916; [1]) | MIC, SA (S. aureus ATCC 13709; S. aureus (SA), in µg/mL)
40 | CCc1[nH]c2nc(Nc3cnc4nccnc4c3)nc(N3CC(O)C3)c2c1Cl.O=C(O)C(F)(F)F [700,573] | > 64 | > 64 |  | 
41 | CCOc1nc(Nc2cnc3c(c2)nnn3CC2CC2)nc2[nH]c(CC)c(Br)c12.O=C(O)C(F)(F)F [700,476] | > 64 | > 64 |  | 
42 | CCc1[nH]c2nc(Nc3cnc4c(c3)nnn4CC3CC3)nc(N3CC(S(=O)(=O)CC4CC4)C3)c2c1Br.O=C(O)C(F)(F)F [700,496] | > 64 | > 64 |  | 
43 | CCc1[nH]c2nc(Sc3nc(-c4nnc(C)o4)cs3)nc(N3CC(O)C3)c2c1Cl.Cl.Cl.Cl [700,387] | > 64 | 16 |  | 
44 | CCc1[nH]c2nc(Sc3cnc4ccoc4c3)nc(N3CC4CNC4C3)c2c1Br.O=C(O)C(F)(F)F (stereo not drawn) [700,680] | 64 | 16 |  | 
45 | CCc1[nH]c2nc(Sc3cccnc3)nc(NCCCn3ccnc3)c2c1Cl.O=C(O)C(F)(F)F [700,274] | 16 | 4 |  | 
46 | CCc1[nH]c2nc(Sc3cnc4nccnc4c3)nc(NCCN)c2c1Cl.O=C(O)C(F)(F)F [700,509] | 16 | 16 |  | 
47 | CCOc1nc(Nc2ccc(Cl)c3ncccc23)nc2[nH]c(CC)c(Br)c12.O=C(O)C(F)(F)F [700,483] | 32 | 32 |  | 
48 | CCc1[nH]c2nc(Sc3cnc4nccnc4c3)nc(N3CCN(CCN)CC3)c2c1Cl.O=C(O)C(F)(F)F [700,444] | 8 | 4 |  | 
49 | CCc1[nH]c2nc(Sc3cnc4c(N)nc(N)nc4c3)nc(N3CC(O)C3)c2c1Cl.O=C(O)C(F)(F)F.O=C(O)C(F)(F)F [700,448] | 2 | 1 |  | 
50 | CCc1[nH]c2nc(Sc3cc(=O)n(C)c(=O)[nH]3)nc(N3CC(N)C3)c2c1Br.O=C(O)C(F)(F)F [700,545] | 4 | 2 |  | 
51 | CCc1[nH]c2nc(Sc3cnc4c(c3)OCCN4C)nc(N3CC(N)C3)c2c1Cl.O=C(O)C(F)(F)F [700,794] |  |  | 32 | 16
52 | CCc1[nH]c2nc(Oc3cncnc3)nc(Oc3cncc(OC)c3)c2c1Cl.O=C(O)C(F)(F)F [700,648] | 2 | ≤ 0.5 |  | 
53 | CCOc1nc(Nc2cnc3nccnc3c2)nc2[nH]c(CC)c(Br)c12.O=C(O)C(F)(F)F [700,572] | > 8 | 4 |  | 
54 | CCc1[nH]c2nc(Sc3cnc4nccnc4c3)nc(N3CC4CC3CN4)c2c1Cl.O=C(O)C(F)(F)F (stereo not drawn) [700,655] | 2 | > 64 |  | 
55 | CCc1[nH]c2nc(Sc3cnc4c(N)nc(N)nc4c3)nc(N3CC(C(=O)O)C3)c2c1Cl.O=C(O)C(F)(F)F.O=C(O)C(F)(F)F [700,464] | > 64 | > 64 |  | 
56 | CCc1[nH]c2nc(Sc3cccnc3)nc(NC[C@H](C)O)c2c1Br.O=C(O)C(F)(F)F [700,270] | 8 | 2 |  | 
57 | CCOc1nc(Nc2cncnc2)nc2[nH]c(CC)c(Cl)c12.O=C(O)C(F)(F)F [700,702] | 16 | 2 |  | 
58 | CCc1[nH]c2nc(Sc3nc(C(=O)O)cs3)nc(N3CCNCC3)c2c1Cl.O=C(O)C(F)(F)F [700,398] | > 64 | > 64 |  | 
59 | CCc1[nH]c2nc(Sc3ccc(C#N)c(F)c3)nc(N3CC[C@@H](N)C3)c2c1Cl.O=C(O)C(F)(F)F [700,666] | 4 | 2 |  | 
60 | CCOc1nc(Nc2ccc3cccnc3c2)nc2[nH]c(CC)c(Br)c12.O=C(O)C(F)(F)F [700,388] | 16 | 4 |  | 
61 | CCc1[nH]c2nc(Sc3cnc4nccnc4c3)nc(N3CC(CNC(=N)N)C3)c2c1Cl.O=C(O)C(F)(F)F [700,502] | > 64 | 16 |  | 
62 | CCc1[nH]c2nc(Sc3nc(C(=O)O)co3)nc(N3CC(O)C3)c2c1Cl.O=C(O)C(F)(F)F.O=C(O)C(F)(F)F [700,395] | > 64 | > 64 |  | 
63 | CCc1[nH]c2nc(Sc3cnc4ccoc4c3)nc(N3CCC(N)C3)c2c1Br.O=C(O)C(F)(F)F (stereo not drawn) [700,679] | > 64 | > 64 |  | 
